Assay results as given in patent US20250388592A1 (REMYND N.V., priority 2022, published 2025).

System: M17_3TAU(P301L) cells
Experiment: TAU-induced cytotoxicity (LDH) in the neuroblastoma tauopathy model
Type: cell-based
Details: Homo sapiens, 168 h, inhibition of TAU-induced toxicity, 7 days retinoic acid differentiation, LDH readout
Description: A TAU expression plasmid was constructed by sub-cloning the cDNA encoding for human TAU-P301L protein, wherein proline at position 301 is substituted by a leucine residue, into mammalian expression vector pcDNA3.1 resulting in the plasmid pcDNA3.1-TAUP301L. Plasmids pcDNA3.1 and pcDNA3.1-TAU P301L were transfected into human neuroblastoma cells (BE-M17; ATCC No. CRL-2267™) using lipofectamine reagent and subsequently, independent clonal cell lines with the plasmids stably integrated into the genome were selected by antibiotic resistance selection (Geneticin (G418)), resulting in cell lines M17.pcDNA3 and M17_3TAUP301L. Expression of the TAUP301 L gene in the M17_3TAUP301 L cells was confirmed by Western blot analysis.
Differentiation of the cells with RA leads to phosphorylation and subsequent aggregation of TAU, inducing a tauopathy in these cells. Cytotoxicity of cells was measured by quantification of lactate dehydrogenase (LDH) levels. In dead cells LDH is leaked out of the cells into the medium due to a loss of plasma-membrane integrity.
Briefly, 3 days preceding the experiment pre-cultures of M17.pcDNA3 and M17_3TAU(P301L) cells were prepared, starting from a stock culture, at a density of 50.000-100.000 cells/cm2 in detection medium (Optimem Reduced Serum without phenol red (Gibco, Cat. 31985-047) supplemented with 1% fetal calf serum (FCS), 1 mM sodium pyruvate, 1×non-essential amino acids (NEAA), 500 μg/ml G418 and 0.5×antibiotic/antimycotic (ABAM)). At the day of the experiment these precultures were diluted to ˜[…] in detection medium without FCS and 60 μL of this suspension is dispensed per well into a 96-well microtiter plate. After 3 hours of incubation at 37° C./5% C02 an equal volume of detection medium containing 2.5 μM RA was added and subsequently incubated for 7 days at 37° C./5% CO2. After 7 days, LDH activity was determined using the Promega Cytotox 96 Non-Radioactive cytotoxicity assay (Cat. G1780), according the manufacturer's instructions. Cytotoxicity is measured as the ratio of LDH increase in the supernatant divided by the LDH increase in the total cell suspension (sum of the LDH measured in cells and supernatant). Toxicity was determined after 7 days of differentiation with retinoic acid in M17_3TAU(P301 L) cells compared to M17.pcDNA3 cells.
The M17_3TAU(P301L) cell line makes it possible to assess the ability of novel compounds to inhibit TAU-induced cytotoxicity. […] Compounds were tested for their ability to hamper TAU-induced toxicity at different concentrations, ranging from low non-effective concentrations to high potent concentrations. Afterwards, the dose-dependent inhibition curve was used to calculate their EC50 (Table 3B).

Compound | EC50
Cc1cccc(CCN2CC3(C2)CN(C(=O)Cc2ccc(Cl)cc2)C3)n1 [Cpd B051, 2-(4-chlorophenyl)-1-(6-(2-(6-methylpyridin-2-yl)ethyl)-2,6-diazaspiro[3.3]heptan-2-yl)ethanone] | 30.7 nM
O=C(NCC1CCC(F)(F)CC1)N1CC2(CN(Cc3ccc(F)cn3)C2)C1 [Cpd B453] | 83.6 nM
Cc1cccnc1CN1CC2(C1)CN(C(=O)OCc1ccc(Cl)cc1)C2 [Cpd B137] | 49.3 nM
O=C(Cc1cccc(C(F)(F)F)c1)N1CC2(CN(Cc3ccc(F)cc3)C2)C1 [Cpd B091] | 4.56 nM
CN(Cc1ccccc1)C1CC2(CC(NC(=O)Cc3ccc(Cl)cc3)C2)C1 (centres unmarked) [Cpd B068, N-(6-(benzyl(methyl)amino)spiro[3.3]heptan-2-yl)-2-(4-chlorophenyl)acetamide] | 13.4 nM
Cc1ccc(CN2CC3(C2)CN(C(=O)NCc2ccc(F)cc2)C3)o1 [Cpd B191, N-(4-fluorobenzyl)-6-((2-methyl-furan-5-yl)methyl)-2,6-diazaspiro[3.3]heptane-2-carboxamide] | 144 nM
Cc1ncc(CN2CC3(C2)CN(C(=O)NCc2ccc(F)cc2)C3)s1 [Cpd B417] | 1690 nM
O=C(Cc1ccc(Cl)cc1)N1CC2(CN(Cc3ncc(Cl)cn3)C2)C1 [Cpd B039, 2-(4-chlorophenyl)-1-(6-((5-chloropyrimidin-2-yl)methyl)-2,6-diazaspiro[3.3]heptan-2-yl)ethanone] | 56.3 nM
Cn1cc(CN2CC3(C2)CN(C(=O)NCC2CCC(F)(F)CC2)C3)c(Cl)n1 [Cpd B204] | 54.9 nM
Cn1ncc(Cl)c1CN1CC2(C1)CN(C(=O)OC1CCC(F)(F)CC1)C2 [Cpd B142, 4,4-difluorocyclohexyl 6-((4-chloro-1-methylpyrazol-5-yl)methyl)-2,6-diazaspiro[3.3]heptane-2-carboxylate] | 864 nM
Cc1nc(CN2CC3(C2)CN(C(=O)C(F)(F)c2ccc(F)cc2)C3)cs1 [Cpd B411] | 3010 nM
Cc1nc(CN2CC3(C2)CN(C(=O)CC2CCC(F)(F)CC2)C3)c(Cl)s1 [Cpd B117] | 3.81 nM
Cn1cnc(CN2CC3(C2)CN(C(=O)CC2CCC(F)(F)CC2)C3)c1Cl [Cpd B458] | 65.5 nM
Cc1nc(CN2CC3(C2)CN(C(=O)CC2CCC(F)(F)CC2)C3)sc1C [Cpd B451] | 106 nM
FC(F)(F)c1ccc(CNC2CC3(C2)CC(Nc2nc(Cc4ccc(Cl)cc4)ns2)C3)cc1 (centres unmarked) [Cpd B304, N-(3-(4-chlorobenzyl)-1,2,4-thiadiazol-5-yl)-N′-(4-(trifluoromethyl)benzyl) spiro[3.3]heptane-2,6-diamine] | 31.5 nM
Clc1ccc(Cc2nsc(NC3CC4(CC(NCCc5ccccc5Cl)C4)C3)n2)cc1 (centres unmarked) [Cpd B334, N-(3-(4-chlorobenzyl)-1,2,4-thiadiazol-5-yl)-N′-(2-chlorophenethyl) spiro[3.3]heptane-2,6-diamine] | 2 nM
Fc1ccccc1CNC1CC2(C1)CC(Nc1nc(Cc3ccc(Cl)cc3)ns1)C2 (centres unmarked) [Cpd B312, N-(3-(4-chlorobenzyl)-1,2,4-thiadiazol-5-yl)-N′-(2-fluorobenzyl) spiro[3.3]heptane-2,6-diamine] | 2.2 nM
O=C(Cc1ccc(F)cc1)N1CC2(CN(CCc3ccccc3Cl)C2)C1 [Cpd B063, 1-{6-[2-(2-Chloro-phenyl)-ethyl]-2,6-diaza-spiro[3.3]hept-2-yl}-2-(4-fluoro-phenyl)-ethanone] | 3.12 nM
Cc1c(Cl)c(CN2CC3(C2)CN(C(=O)NCC2CCC(F)(F)CC2)C3)nn1C [Cpd B203] | 15.5 nM
O=C(OC1CCC(F)(F)CC1)N1CC2(CN(Cc3ncccc3Cl)C2)C1 [Cpd B154] | 7.81 nM
FC(F)(F)c1cccc(CCNC2CC3(C2)CC(Nc2nc(Cc4ccc(Cl)cc4)ns2)C3)c1 (centres unmarked) [Cpd B336, N-(3-(4-chlorobenzyl)-1,2,4-thiadiazol-5-yl)-N′-(3-(trifluoromethyl)phenethyl) spiro[3.3]heptane-2,6-diamine] | 7 nM
O=C(NCC1CCC(F)(F)CC1)N1CC2(CN(Cc3ccc(F)cc3C(F)(F)F)C2)C1 [Cpd B201] | 3.55 nM
O=C(OC1CCC(F)(F)CC1)N1CC2(CN(Cc3ccc(F)cc3F)C2)C1 [Cpd B152] | 2.76 nM
